From the NIST ThermoML archive (doi:10.1016/j.tca.2006.06.018)
Numbers after ± are expanded uncertainties.

Experiments:
[1] = Molar enthalpy of transition or fusion; conditions: DSC
[2] = DTA

SMILES	Molar enthalpy of transition or fusion ([1]; Crystal 1) [kcal/mol]	Triple point temperature ([2]; Crystal 1) [K]	Triple point temperature ([2]; Metastable crystal) [K]	Molar enthalpy of transition or fusion ([1]; Crystal 2) [kcal/mol]	Triple point temperature ([2]; Crystal 2) [K]	Molar enthalpy of transition or fusion ([1]; Crystal 3) [kcal/mol]	Triple point temperature ([2]; Crystal 3) [K]
CCCCCCCCCCOn1cc[n+](OCCCCCCCCCC)c1C.O=S(=O)([N-]S(=O)(=O)C(F)(F)F)C(F)(F)F	19 ± 0.502	303.1 ± 2.1					
CCCCCCCCOCn1cc[n+](COCCCCCCCC)c1.O=S(=O)([N-]S(=O)(=O)C(F)(F)F)C(F)(F)F	8.17 ± 0.229	287.7 ± 2.1					
CC[N+](C)(C)CCO.N#C[N-]C#N [N-ethyl-2-hydroxyethyl-N,N-dimethylammonium dicyanamide]	2.06 ± 0.0789	282.7 ± 2.1	168.4 ± 0.5				
CCCC[N+](C)(C)CCO.[Br-] [N-(2-hydroxyethyl)-N,N-dimethylbutanaminium bromide]	3.16 ± 0.105	359.3 ± 2.1	187.3 ± 0.5				
CCCCOCn1cc[n+](COCCCC)c1.F[B-](F)(F)F [1,3-bis(butoxymethyl)-1H-imidazolium tetrafluoroborate]	2.04 ± 0.0789	281.4 ± 2.1		2.6 ± 0.0908	267.4 ± 0.5		
CC[N+](C)(C)CCO.F[B-](F)(F)F	1.23 ± 0.0598	426.8 ± 2.1	146 ± 1	0.28 ± 0.0382	311.5 ± 0.5	0.731 ± 0.0478	252.8 ± 0.5
CC[N+](C)(C)CCO.F[P-](F)(F)(F)(F)F	2.53 ± 0.0908	272 ± 2.1					
